Measurements reported in US9957261B2 (Hoffmann-La Roche Inc., priority 2014, dated 2018).

How the values were obtained:
[1] = biological target: mouse TAAR1 (Mus musculus (Mouse), UniProt Q923Y8); assay: Radioligand binding assay on mouse TAAR1; conditions: mouse TAAR1, membranes of stably transfected HEK-293 cells; first value of mouse/rat pair
Outline: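 Membranes from HEK293 cells stably expressing mouse TAAR1, in HEPES-NaOH pH 7.4; displacement of ³H-(S)-4-[(ethyl-phenyl-amino)-methyl]-4,5-dihydro-oxazol-2-ylamine, nonspecific binding with 10 μM unlabeled ligand.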

[2] = biological target: rat TAAR1 (Rattus norvegicus (Rat), UniProt Q923Y9); assay: Radioligand binding assay on rat TAAR1; conditions: rat TAAR1, membranes of stably transfected HEK-293 cells; second value of mouse/rat pair
Chain of rat TAAR1 (Q923Y9 whole entry): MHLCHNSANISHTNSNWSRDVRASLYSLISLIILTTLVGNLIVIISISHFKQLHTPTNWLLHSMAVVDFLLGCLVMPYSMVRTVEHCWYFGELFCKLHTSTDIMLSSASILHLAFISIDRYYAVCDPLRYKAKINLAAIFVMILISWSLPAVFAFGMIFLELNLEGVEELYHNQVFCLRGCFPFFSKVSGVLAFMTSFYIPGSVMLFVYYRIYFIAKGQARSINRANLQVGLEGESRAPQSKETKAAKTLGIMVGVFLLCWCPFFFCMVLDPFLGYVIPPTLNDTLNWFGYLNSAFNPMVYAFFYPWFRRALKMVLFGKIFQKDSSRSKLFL
Outline: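 Competition binding with [3H]-(S)-4-[(ethyl-phenyl-amino)-methyl]-4,5-dihydro-oxazol-2-ylamine on membranes from HEK293 cells stably expressing rat TAAR1, in HEPES-NaOH pH 7.4. Compounds spanned 10 pM-10 μM in duplicate, incubated 1 h at 4 °C, with nonspecific binding set by 10 μM unlabeled ligand. Filtration followed by scintillation counting.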

Chain of mouse TAAR1 (Q923Y8 whole entry): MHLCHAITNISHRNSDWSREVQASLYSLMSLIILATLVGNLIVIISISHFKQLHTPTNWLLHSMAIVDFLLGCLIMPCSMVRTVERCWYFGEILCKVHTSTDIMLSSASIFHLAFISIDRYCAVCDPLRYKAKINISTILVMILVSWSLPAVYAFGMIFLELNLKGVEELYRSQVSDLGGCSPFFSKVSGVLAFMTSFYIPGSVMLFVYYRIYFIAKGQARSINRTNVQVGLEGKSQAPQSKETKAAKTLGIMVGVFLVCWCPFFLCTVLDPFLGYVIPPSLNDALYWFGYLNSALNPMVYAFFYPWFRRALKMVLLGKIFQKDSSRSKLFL

N[C@H]1COc2cc(NC(=O)c3ccc(F)c(F)c3)ccc2C1 [Example 87, (R)—N-(3-Aminochroman-7-yl)-3,4-difluorobenzamide]
Ki [1]: 0.0009 µM
Ki [2]: 0.0189 µM

CCc1n[nH]c(C(=O)Nc2ccc3c(c2)OC[C@H](N)C3)c1C [Example 88, (R)—N-(3-Aminochroman-7-yl)-3-ethyl-4-methyl-1H-pyrazole-5-carboxamide]
Ki [1]: 0.0083 µM
Ki [2]: 0.0119 µM

Cc1cc(C(=O)Nc2ccc3c(c2)OC[C@H](N)C3)cc(Cl)n1 [Example 89, (R)—N-(3-Aminochroman-7-yl)-2-chloro-6-methylisonicotinamide]
Ki [1]: 0.0088 µM
Ki [2]: 0.0243 µM

N[C@H]1COc2cc(NC(=O)c3ccnc(C(F)(F)F)c3)ccc2C1 [Example 90, (R)—N-(3-Aminochroman-7-yl)-2-(trifluoromethyl)isonicotinamide]
Ki [1]: 0.0091 µM
Ki [2]: 0.0096 µM

N[C@H]1COc2cc(NC(=O)c3cc(Cl)nc(Cl)c3)ccc2C1 [Example 91, (R)—N-(3-Aminochroman-7-yl)-2,6-dichloroisonicotinamide]
Ki [1]: 0.0035 µM
Ki [2]: 0.0077 µM

CCn1nc(C(=O)Nc2ccc3c(c2)OC[C@H](N)C3)c(Br)c1OCC(F)F [Example 92, (R)—N-(3-Aminochroman-7-yl)-4-bromo-5-(2,2-difluoroethoxy)-1-ethyl-1H-pyrazole-3-carboxamide]
Ki [1]: 0.0151 µM
Ki [2]: 0.0023 µM

N[C@H]1COc2cc(Nc3ncc(Cl)cn3)ccc2C1 [Example 93, (R)—N7-(5-Chloropyrimidin-2-yl)chroman-3,7-diamine]
Ki [1]: 0.042 µM
Ki [2]: 0.0374 µM

COc1cccc(Nc2ccc3c(c2)CC[C@H](N)C3)c1 [Example 94, (S)—N6-(3-Methoxyphenyl)-1,2,3,4-tetrahydronaphthalene-2,6-diamine]
Ki [1]: 0.0541 µM
Ki [2]: 0.0462 µM
